≈ marks a conversion by molar mass, not a printed value.
What was measured:
[1] = tested on: Trypanosoma brucei rhodesiense (strain STIB900); test: In vitro drug activity assay, protozoon B; type: cell-based; settings: bloodstream form trypomastigotes, 72 hours, Alamar Blue
Method: (§1) In vitro activity of selected compounds of the invention against different protozoa was assessed as follows.
Trypanosoma brucei rhodesiense STIB900 bloodstream form trypomastigotes were maintained in HMI-18 medium (Hirumi H, Hirumi K, J Parasitol. 1989, 75(6):985-989) with 15% heat-inactivated fetal calf serum at 37° C., 5% CO2, humidified atmosphere. Trypomastigotes were washed and resuspended in fresh medium at a concentration of 2×10^5 mL. Test compounds were given to the trypomastigotes and plates were incubated for 72 hours at 37° C., 5% CO2, humidified atmosphere. At 72 hours the plates were assessed microscopically before Alamar Blue was added (Raz et al., Acta Trop. 1997, 68: 139-147). Plates were read after 5 to 6 hours at EX/EM 530/585 nm with a filter cutoff at 550 nm. ED50 values were calculated with Msxlfit (IDBS).
(§2) The following protozoa were assessed: • A) Trypanosoma cruzi (Tulahuan-LACZ amstigotes in PEM, Lorente S O et al., Antimicrobial agents and chemotherapy 2004, 48(8): 2937-2950; Buckner et al., Infection and Immunity 1999, 67(1): 403-409; Buckner et al., Antimicrobial Agents and Chemotherapy 1996, 40(11): 2592-2597) • B) Trypanosoma brucei rhodesiense (strain STIB900, Lorente S O et al., Antimicrobial agents and chemotherapy 2004, 48(8): 2937-2950; Habtemariam S, BMC Pharmacology 2003, 3:6) • C) Plasmodium falciparum (strain K1, Korsinczky M et al., Antimicrobial agents and chemotherapy 2000, 44(8): 2100-2108; Thaitong S and Beale G H, Trans. R. Soc. Trop. Med. Hyg. 1981, 75: 271-273; Trager W and Jensen J B, Science 1976, 193: 673-675) • D) Plasmodium faiciparum (strain 3D7, Mu et al., PLoS Biology 2005, 3(10): e335)

[2] = tested on: Plasmodium falciparum (strain K1); test: In vitro drug activity assay, protozoon C; type: cell-based; settings: strain K1, 3[H]-hypoxanthine method
Method: as §1
(§3) Plasmodium falciparum strain K1 and strain 3D7 parasites were cultured according to Trager W and Jensen J B (Science 1976, 193: 673-675). In vitro drug susceptibility assays with the test compounds were carried out according to Korsinczky M et al. (Antimicrobial agents and chemotherapy 2000, 44(8): 2100-2108) and Fivelman Q L et al. (Antimicrobial agents and chemotherapy 2004, 48(11): 4097-4102) using a ^3[H]-hypoxanthine radioisotope method. ED50 values were calculated with Msxlfit (IDBS).
as §2

[3] = tested on: Plasmodium faiciparum (strain 3D7); test: In vitro drug activity assay, protozoon D; type: cell-based, Plasmodium falciparum; settings: strain 3D7, 3[H]-hypoxanthine method
Method: as §1, §3, §2

[4] = tested on: Trypanosoma cruzi (Tulahuan-LACZ amstigotes in PEM); test: In vitro drug activity assay, protozoon A; type: cell-based; settings: amastigotes in murine peritoneal macrophages, 3 days
Method: as §1
Murine (CD1) peritoneal macrophages were harvested 24 hours after starch induction and dispensed into 96-well plates at a concentration of 4×10^5 mL. After 24 hours, the cells were infected with Trypanosoma cruzi Tulahuan LAC-Z amastigotes (grown and cultured according to Buckner et al., Infection and Immunity 1999, 67(1): 403-409). 24 hours later, the infected cells were exposed to the test compounds (compounds of the invention as well as known prior art compounds) for 3 days and 50 μL of 500 μM CPRG-1% Nonidet P-40 was added to each well. The plates were read after 2 to 5 hours at 570 nm (Buckner et al., Antimicrobial Agents and Chemotherapy 1996, 40(11): 2592-2597). ED50 values were calculated with Msxlfit (IDBS).
as §2

[5] = tested on: Cryptococcus neoformans ATCC 90112; test: Anti-fungal broth microdilution (MIC), fungus H; type: cell-based; settings: yeast protocol, more than 80% inhibition, 48 h
Method: (§4) Anti-fungal activity of selected compounds of the invention was assessed by means of anti-fungal susceptibility tests as follows.
(§5) The antifungal activities of the compounds of the invention against different fungi were measured according to standard broth microdilution methods of the US National Committee for Clinical Laboratory standards (NCCLS) for yeasts (NCCLS document M27-A, 1997) and filamentous fungi (NCCLS document M38-A, 2002).
(§6) Stock solutions of compounds of the invention were freshly prepared on the days of experiments equal to 1.28 mg/10 ml media. Serial dilutions were performed to achieve the following testing concentrations: 64 μg/ml, 32 μg/ml, 16 μg/ml, 8 μg/ml, 4 μg/ml, 2 μg/ml, 1 μg/ml, 0.5 μg/ml, 0.25 μg/ml and 0.125 μg/ml.
(§7) An inoculum of 10^6 CFU/ml of the fungi strain was prepared in the appropriate medium and transferred to test tubes for incubation.
(§8) The method is used to determine the minimum inhibitory concentrations (MIC) of drugs on fungi strains. […] For the filamentous fungi protocol, MIC determination took place after 48 to 72 h of culture at 35° C. and was defined at that concentration which produced more than 50% visible growth inhibition.

[6] = tested on: Aspergillus fumigatus 322-384; test: Anti-fungal broth microdilution (MIC), fungus B; type: cell-based; settings: filamentous protocol, more than 50% growth inhibition, 48 to 72 h
Method: as §4, §5, §6, §7, §8

[7] = tested on: Aspergillus fumigatus ATCC 204305; test: Anti-fungal broth microdilution (MIC), fungus A; type: cell-based; settings: filamentous protocol, more than 50% growth inhibition, 48 to 72 h
Method: as §4, §5, §6, §7, §8

[8] = tested on: Candida albicans ATCC 10231; test: Anti-fungal broth microdilution (MIC), fungus D; type: cell-based; settings: yeast protocol, more than 80% inhibition, 48 h
Method: as §4, §5, §6, §7, §8

[9] = tested on: Moraxella catarrhalis DMS 11994 (ATCC 43617); test: Anti-bacterial bouillon microdilution assay (MIC), bacterium D; type: cell-based; settings: 24 h
Method: (§9) Selected compounds of the invention were tested in a bouillon microdilution assay method according to the DIN 58940 (www.din.de) guidelines for determination of susceptibility of bacterial strains with regard to cell growth inhibition. The assay method quantifies bacterial cell growth which corresponds to the turbidity of the liquid culture medium by photometric measurement carried out at 595 nm.
(§10) The method of MIC determination was performed according to DIN 58940-5. The volumina were adapted according to the microdilution method as described in DIN 58940-7 guideline.
(§11) Dependent on water solubility, compounds of the invention were dissolved either in water or ethanol in a concentration of 10 mg/ml. Subsequently, the stock was further diluted in water to a concentration of 512 μg/ml. The following serial dilutions (factor 2) were performed in water resulting in the following […] testing concentrations: 256 μg/ml, 128 μg/ml, 64 μg/ml, 32 μg/ml, 16 μg/ml, 8 μg/ml, 4 μg/ml, 2 μg/ml, 1 μg/ml, 0.5 μg/ml, 0.25 μg/ml and 0.125 μg/ml. Diluted compounds of the invention were transferred in 100 μl volume to the microtiter plate wells.
(§12) Pre-cultures of bacteria were grown in appropriate liquid media (refer to ATCC webpage, www.atcc.org) and afterwards were inoculated in corresponding liquid medium. 100 μl of the inoculums [adjusted to an amount of app. 1×10^6 microorganisms per ml (range of 10^5-10^8 microorganisms per ml)] were added to each of the testing compound concentrations and cultivated under the appropriate conditions.
(§13) Before and after incubation, bacterial growth was determined by photometric analysis against a positive control containing growing bacteria without compound and a sterile/negative control containing only the medium.

[10] = tested on: Candida albicans TS3; test: Anti-fungal broth microdilution (MIC), fungus F; type: cell-based; settings: yeast protocol, more than 80% inhibition, 48 h
Method: as §4, §5, §6, §7, §8

[11] = tested on: Cryptococcus neoformans H99; test: Anti-fungal broth microdilution (MIC), fungus I; type: cell-based; settings: yeast protocol, more than 80% inhibition, 48 h
Method: as §4, §5, §6, §7, §8

[12] = tested on: Bacteroides fragilis DSM 2151 (ATCC 25285); test: Anti-bacterial bouillon microdilution assay (MIC), bacterium E; type: cell-based; settings: anaerob, 24 h
Method: as §9, §10, §11, §12, §13

[13] = tested on: Candida albicans ATCC 90028; test: Anti-fungal broth microdilution (MIC), fungus E; type: cell-based; settings: yeast protocol, more than 80% inhibition, 48 h
Method: as §4, §5, §6, §7, §8

[14] = tested on: Cryptococcus gattii ATCC 32608; test: Anti-fungal broth microdilution (MIC), fungus J; type: cell-based; settings: yeast protocol, more than 80% inhibition, 48 h
Method: as §4, §5, §6, §7, §8

[15] = tested on: Aspergillus fumigatus 040-200167; test: Anti-fungal broth microdilution (MIC), fungus C; type: cell-based; settings: filamentous protocol, more than 50% growth inhibition, 48 to 72 h
Method: as §4, §5, §6, §7, §8

[16] = tested on: Candida parapsilosis ATCC 22019; test: Anti-fungal broth microdilution (MIC), fungus G; type: cell-based; settings: yeast protocol, more than 80% inhibition, 48 h
Method: as §4, §5, §6, §7, §8

[17] = tested on: epimastigotes of Trypanosoma cruzi strain Y; test: In vitro activity of miltefosine and benznidazole against epimastigotes; type: cell-based; settings: 72 h
Method: In vitro activity of Miltefosine and Benznidazole in the course of a combination treatment against Trypanosoma cruzi strain Y was assessed compared to the respective single treatments with miltefosine or benznidazole alone.
Miltefosine and Benznidazol were tested in vitro in combination against epimastigote forms of Trypanosoma cruzi strain Y which were isolated from a chagasic patient in Sao Paulo, Brazil and obtained from Dr. Victor Nussenzweig (Silva, L H. and Nussenzweig, V.; Folia clin. biol., 20: 191-207, 1953). This T. cruzi Y strain can also be ordered at ATCC 50832, while the ATCC strain must be re-adapted by several passages through mice in order to regain the strain's original characteristics of differentiation and virulence.
Epimastigotes were axenially cultured in brain heart infusion medium (BHI, Becton, Dickinson, Cat. No. 221812) supplemented with 10 mg of hemin per liter and 5% heat inactivated fetal calf serum (FCS) at 28° C. with shaking (˜80 rpm) up to a maximum of 10-12 passages, before the cultures were aged to obtain metacyclics that were purified on a DE-52 column (Whatman DEAE cellulose ion exchange column, Waco, Cat. No. 17050-03 or 17050-04) and injected into mice. After 2-4 weeks parasites were recovered from blood and placed back into axenic culture.
Stock solutions of Miltefosine and Benznidazol in concentrations of 10 mg/ml and 20 mg/ml dissolved in methanol were used. Stock solutions were serially diluted with a factor of 2 in BHI-FCS medium. For Benznidazol the following testing concentrations were used: 80 μg/ml, 40 μg/ml, 20 μg/ml, 10 μg/ml, 5 μg/ml and 2.5 μg/ml. The testing concentrations for Miltefosine were 20 μg/ml, 10 μg/ml, 5 μg/ml, 2.5 μg/ml, 1.25 μg/ml and 0.625 μg/ml.
2×10^6 epimastigotes were incubated in BHI-FCS medium with Miltefosine and Benznidazol in a final volume of 200 μl. After 72 h incubation at 28° C., parasite growth was determined by direct counting the number of parasites with a Neubauer chamber. The 50% inhibitory concentrations were determined by linear regression analysis.

Row | SMILES | ED50 (μg/mL), protozoon B [1] [µg/mL] | ED50 (μg/mL), protozoon C [2] [µg/mL] | ED50 (μg/mL), protozoon D [3] [µg/mL] | ED50 (μg/mL), protozoon A [4] [µg/mL] | MIC, fungus H [5] [µg/mL] | MIC, fungus B [6] [µg/mL] | MIC, fungus A [7] [µg/mL] | MIC, fungus D [8] [µg/mL] | MIC, bacterium D [9] [µg/mL] | MIC, fungus F [10] [µg/mL] | MIC, fungus I [11] [µg/mL] | MIC, bacterium E [12] [µg/mL] | MIC, fungus E [13] [µg/mL] | MIC, fungus J [14] [µg/mL] | MIC, fungus C [15] [µg/mL] | MIC, fungus G [16] [µg/mL] | Epimastigotes [amount/mL] ([17]; benznidazole 5 ug/mL) | Epimastigotes [amount/mL] ([17]; benznidazole 10 ug/mL) | Epimastigotes [amount/mL] ([17]; benznidazole 40 ug/mL)
1 | CCCCCCCCCCCCCCCCOP(=O)([O-])OC1CC[N+](C)(CCc2ccccc2)CC1 (stereo not drawn) [Compound 4, Phosphoric acid hexadecyl ester 1-methyl-1-phenethyl-piperidin-4-yl ester] | 12.29 (≈ 23.5 µM) | 5.44 (≈ 10.4 µM) | 15.32 (≈ 29.3 µM) | 1.93 (≈ 3.69 µM) |  |  |  |  |  |  |  |  |  |  |  |  |  |  | 
2 | CCCCCCCCCCCCCCCCOP(=O)([O-])OCC[N+]12CCC(CC1)CC2 [Compound 3, Phosphoric acid 2-(1-aza-bicyclo[2.2.2]oct-1-yl)-ethyl ester hexadecyl ester] | 25.03 (≈ 54.5 µM) | 8.03 (≈ 17.5 µM) | 2.25 (≈ 4.9 µM) | 0.33 (≈ 0.718 µM) | 1.5 (≈ 3.26 µM) | 2 (≈ 4.35 µM) | 3 (≈ 6.53 µM) | 1 (≈ 2.18 µM) | 8 (≈ 17.4 µM) | 2 (≈ 4.35 µM) | 1 (≈ 2.18 µM) | 128 (≈ 278 µM) | 1 (≈ 2.18 µM) | 0.75 (≈ 1.63 µM) | 4 (≈ 8.7 µM) | 2 (≈ 4.35 µM) |  |  | 
3 | O=C(Cn1ccnc1[N+](=O)[O-])NCc1ccccc1 [benznidazole, N-Benzyl-2-nitroimidazol-1-yl-acetamide] |  |  |  | 0.22 (≈ 0.845 µM) |  |  |  |  |  |  |  |  |  |  |  |  | 455.833 | 358.333 | 190.000

— US20070167408A1, “NOVEL ALKYL PHOSPHOLIPID DERIVATIVES WITH REDUCED CYTOTOXICITY AND USES THEREOF” (ZENTARIS GmbH, priority 2005, published 2007)
